Data reported in ChEMBL document CHEMBL1125053, “Dihydropyrimidine calcium channel blockers. 2. 3-substituted-4-aryl-1,4-dihydro-6-methyl-5-pyrimidinecarboxylic acid esters as potent mimics of dihydropyridines” (J Med Chem, 1990).

What follows are compounds tested against Voltage-gated L-type calcium channel (Homo sapiens, UniProt Q13936+Q13698+Q01668+O60840) (assay: In vitro vasorelaxant activity (calcium channel blocking activity) was determined with potassium-depolarized rabbit thoracic aorta).
Type: functional, tissue-based

Compared with CCOC(=O)N1C(=S)N=C(C)/C(=C(/O)OC(C)C)[C@H]1c1cccc([N+](=O)[O-])c1, CCOC(=O)N1C(=S)N=C(C)/C(=C(/O)OCC)C1c1cccc([N+](=O)[O-])c1 (centres undefined) is 8.5-fold higher in IC50: 2 nM for the first, 17 nM for the second.

First: CCCN1C(S)=NC(C)=C(C(=O)OCC)C1c1cccc([N+](=O)[O-])c1 (centres undefined)
Second: CCOC(=O)C1=C(C)N=C(OC)NC1c1cccc([N+](=O)[O-])c1 (centres undefined)
The IC50 of the first is 14-fold lower: 50 nM for the first, 710 nM for the second.

Compared with CCOC(=O)C1=C(C)NC(OCC)=C(C(=O)OCC)C1c1cccc([N+](=O)[O-])c1 (centres undefined), CCOC(=O)C1=C(C)NC(SCC)=C(C(=O)OCC)C1c1cccc([N+](=O)[O-])c1 (centres undefined) is 6.5-fold lower in IC50: 26 nM for the first, 4 nM for the second.

First: CCOC(=O)C1=C(C)NC(SC)=NC1c1cccc([N+](=O)[O-])c1 (centres undefined)
Second: CCO/C(O)=C1\C(C)=NC(=S)N(C(=O)N(C)C)C1c1cccc([N+](=O)[O-])c1 (centres undefined)
The IC50 of the first is 2.1-fold lower: 130 nM for the first, 270 nM for the second.

CCOC(=O)N1C(=S)N=C(C)/C(=C(/O)OCC)C1c1ccccc1C(F)(F)F (centres undefined) gave an IC50 of 26 nM.
